The test system of the first assay is virus. Nature of the assay: Intranasal administration - simulation in vitro (plaque inhibition test, compound applied to the lids of the petri dishes). The class given is cell-based. Particulars: 1 μg applied in ethanol to the lids of the petri dishes; confluent sheet of cells covered with agarose gel. The source says:
(§1) Activity may be detected by the plaque inhibition (PI) test and measured by the plaque reduction (PR) test. Both assays involve the formation of a monolayer cell culture in a petri dish followed by infection with a virus suspension, and then overlaying the culture with nutrient agarose in the form of a gel. This gel ensures that there is no spread of virus throughout the culture and thus areas of localised cell destruction, or plaques, are formed.
In the plaque inhibition test a filter paper disc which holds 0.01 ml when impregnated with a solution of compound is placed on top of the agarose gel. The compound may then diffuse throughout the gel so that its greatest concentration will be around the disc and its lowest concentration towards the periphery of the petri dish. The efficacy of the compound may be detected by observing the zone of inhibition of plaque formation.
Petri dishes were prepared, as for the plaque inhibition test and the confluent sheet of cells was covered with a layer of agarose gel. The compound, 2-phenyltetrahydroisoquinoline (1 μg) was dissolved in ethanol, and applied to the lids of the petri dishes. When the ethanol had evaporated, leaving the compound spread over the inside of the lids, these were replaced on the petri dishes.
For the molecule `c1ccc(N2CCc3ccccc3C2)cc1` [Example 4, 2-phenyl-1,2,3,4-tetrahydroisoquinoline], the “inhibition of plaque formation” value is recorded as “total inhibition of plaque formation”.

The test system of another assay is rhinovirus serotype 1B. Nature of the assay: plaque reduction (PR) test. The class given is cell-based. Particulars: Enterovirus, read-out: PR(ED50). As for the experimental part:
as §1
Detectable activity is measured with the plaque reduction assay. A range of concentrations of compound of known molarity are incorporated in the nutrient agarose overlay. Plaque suppression is proportional to compound concentration. Plaque numbers are expressed as percentages of a control, and a dose response curve may be drawn. From this curve 50% of the effective dose(ED50) may be estimated.
In the case of `c1ccc(N2CCc3ccccc3C2)cc1` [Example 4, 2-phenyl-1,2,3,4-tetrahydroisoquinoline], the EC50 stood at 70 nM.

The assay is the same for the next values; noted with them: Enterovirus; Activity versus rhinovirus serotype 1B; monolayer cell culture, compound in nutrient agarose overlay; read-out: PR(ED50).
As for `c1ccc(C2CCc3ccccc3S2)cc1` (centres unmarked) [Example 1, thioflavan], the EC50 is 28 nM.

With `Clc1ccc2c(c1)CCN(c1ccccc1)C2` [Example 18, 6-chloro-2-phenyl-1,2,3,4-tetrahydroisoquinoline], the EC50 was found to be 570 nM.

Consider `Oc1ccc(N2CCc3ccccc3C2)cc1` [Example 15, 1,2,3,4-tetrahydro-2-(4-hydroxyphenyl)isoquinoline], for which the EC50 came to 1850 nM.

Take `c1ccc(C2CCc3ccccc3N2)cc1` (centres unmarked) [Example 24, 1,2,3,4-tetrahydro-2-phenylquinoline]: the EC50 amounted to 330 nM.

Take `Clc1ccc(N2CCc3ccccc3C2)cc1` [Example 7, 1,2,3,4-tetrahydro-2-(4-chlorophenyl)isoquinoline]: the EC50 amounted to 100 nM.

As to `Clc1ccc(N2CCc3ccc(Cl)cc3C2)cc1` [Example 22, 7-chloro-2-(4-chlorophenyl)-1,2,3,4-tetrahydroisoquinoline], the EC50 is 130 nM.

Take `COc1ccc(N2CCc3ccccc3C2)c(OC)c1` [Example 16, 1,23,4-tetrahydro-2-(2-4-dimethoxyphenyl)isoquinoline]: the EC50 is 8000 nM.

Turning to `Cc1ccc(N2CCc3ccccc3C2)cc1` [Example 11, 1,2,3,4-tetrahydro-2-(4-methylphenyl)isoquinoline], the EC50 was 1000 nM.

With `Fc1ccc(N2CCc3cc(Cl)ccc3C2)cc1` [Example 20, 1,2,3,4-tetrahydro-2-(4-fluorophenyl)-6-chloroisoquinoline], the EC50 was 210 nM.

Turning to `Clc1ccc(N2CCc3cc(Cl)ccc3C2)cc1` [Example 19, 1,2,3,4-tetrahydro-2-(4-chlorophenyl)-6-chloroisoquinoline], the EC50 was 50 nM.

For the molecule `Clc1ccc2c(c1)CN(c1ccccc1)CC2` [Example 21, 7-chloro-2-phenyl-1,2,3,4-tetrahydroisoquinoline], the EC50 turned out to be 110 nM.

As for `COc1ccc(N2CCc3ccccc3C2)cc1` [Example 12, 1,2,3,4-tetrahydro-2-(4-methoxyphenyl)isoquinoline], the EC50 is 2450 nM.

For `Clc1ccc2c(c1)CN(c1ccc(Cl)c(Cl)c1)CC2` [Example 23, 7-chloro-2-(3,4-dichlorophenyl)-1,2,3,4-tetrahydroisoquinoline], the EC50 turned out to be 620 nM.

Regarding `Clc1ccc(C2CCc3cc(Cl)ccc3S2)cc1` (centres unmarked) [Example 3, 4',6-dichlorothioflavan], the EC50 is 44 nM.

As for `Cc1cccc(C)c1N1CCc2ccccc2C1` [Example 13, 1,2,3,4-tetrahydro-2-(2,6-dimethylphenyl)isoquinoline], the EC50 amounted to 75 nM.

As for `c1ccc(C2Cc3ccccc3CN2)cc1` (centres unmarked) [Example 26, 3-phenyl-1,2,3,4-tetrahydroisoquinoline], the EC50 was 290 nM.

In the case of `c1ccc(C2COc3ccccc3C2)cc1` (centres unmarked) [Example 27, isoflavan], the EC50 came to 820 nM.

For `Fc1ccc(N2CCc3ccccc3C2)cc1` [Example 8, 1,2,3,4-tetrohydro-2-(4-fluorophenyl)isoquinoline], the EC50 came out at 210 nM.

The values above are taken from patent US4801593A, “Chemotherapeutic agents” (Burroughs Wellcome Co., priority 1979, dated 1989).
